Measured values published in US10400224B2, “Enantioselective modified esterase enzyme and method for the production thereof” (CORPORACIÓN CORPOGEN, priority 2014, dated 2019).

Key:
Assay type in all cases: biochemical, Acidicaldus organivorans USBA-GBX-499
modified esterase 499EST [1] = test: Effect of organic solvents on the modified esterase; conditions: for % actividad relativa: pNPC8, 55° C., pH 9.0; for esterase activity increased to: solvent at a concentration of 15% and 30%
Experimental: (§1) The activity of the modified enzyme was determined spectrophotometrically at 405 nm in a range of temperatures between 45 and 75° C., using p-nitro phenyl of other chains C6 to C10 (Sigma-Aldrich) as substrate. One unit of esterase activity was defined as the capacity of the enzyme to release 1 μmol min^−1 of p-nitrophenol under the essay conditions. The molar absorbance coefficient was of 16.900 M^−1 cm^−1. The mixture consisted of 448 μl of the Tris-HCl 50 mM buffer at 9.0 pH that contained 50 μl of p-nitrophenyl diluted in isopropanol and 2 μl of the solution stock of the protein. All the assays were made by triplicate and the average was calculated.
(§2) The evaluation of metallic, solvent and detergent ions and inhibitors of the modified enzyme was carried out incubating the enzyme in the presence of each of them for one hour at 30° C. The evaluation established the stability of the referenced enzyme at a control for which the enzyme was in absence of the additive. The result was expressed in percentage of residual activity, being 100% the control.
Effect of organic solvents. The activity of the enzyme was evaluated in presence of different organic solvents. Two concentrations were evaluated, 15 and 30% of 1 butanol, 2 butanol, acetonitrile, acetone, 1-propanol, 2-propanol, methanol, ethanol, glycerol, dimethyl sulfoxide (DMSO), dimethyl formamide (DMF) (Table 3)

499EST = test: Effect of inhibitors on the modified enzyme 499EST; conditions: inhibitor 5 mM; one hour at 30° C.
Experimental: as §1, §2
(§3) The effect of the detergents, sodium dodecyl sulfate (SDS), Tween 20, Tween 80, Triton X-100, were evaluated at concentrations of 1 and 5% (v/v) (Table 2). In the evaluations it was determined the effect of inhibitors such phenylmethanesulfonyl fluoride-PMSF, ethylenediaminetetraacetic acid, EDTA, 2-mercaptoethanol (2-ME), dithiothreitol (DTT), the evaluated concentration was of 5 mM.

modified esterase 499EST [2] = test: Effect of metallic ions on the activity of the modified esterase 499EST; conditions: for Actividad relativa (%): pNPC8, 55° C., pH 9.0, control without additives = 100%
Experimental: as §1, §2
It was evaluated the effect of metallic ions on the enzyme activity. The ions evaluated were: CaCl2, FeCl3, MgCl2, CoCl2, NiCl2, ZnCl2, CuCl2 and MnCl2, the concentrations used were 1 mM and 10 mM. The effect of the ions Fe^3+ was evaluated at concentrations of 0.2 mM-10 mM, and its influence on the thermo stability between 50 and 65° C. (Table 1).

modified esterase 499EST [3] = test: Effect of detergents on the modified esterase 499EST; conditions: for % actividad relativa: pNPC8, 55° C., pH 9.0, control without additives = 100%
Experimental: as §1, §2, §3

1-butanol
% actividad relativa (modified esterase 499EST [1]; organic solvent 15%): 1.5%
% actividad relativa (modified esterase 499EST [1]; organic solvent 30%): 0.0%

O[C@H](CS)[C@H](O)CS (racemic) [DTT, dithiothreitol]
inhibition of the enzymatic activity (499EST): totally inhibits

CCCO [1-propanol]
% actividad relativa (modified esterase 499EST [1]; organic solvent 15%): 26.8%
% actividad relativa (modified esterase 499EST [1]; organic solvent 30%): 24.81%

CCC(C)O (centres unmarked) [2-butanol]
% actividad relativa (modified esterase 499EST [1]; organic solvent 15%): 16.3%
% actividad relativa (modified esterase 499EST [1]; organic solvent 30%): 14.7%

CC(C)O [2-propanol]
% actividad relativa (modified esterase 499EST [1]; organic solvent 15%): 80.0%
% actividad relativa (modified esterase 499EST [1]; organic solvent 30%): 31.3%

CC(C)=O [Acetona, acetone]
% actividad relativa (modified esterase 499EST [1]; organic solvent 15%): 72.0%
% actividad relativa (modified esterase 499EST [1]; organic solvent 30%): 9.7%

CC#N [Acetonitrilo, acetonitrile]
% actividad relativa (modified esterase 499EST [1]; organic solvent 15%): 17.0%
% actividad relativa (modified esterase 499EST [1]; organic solvent 30%): 0.0%

[Ca+2].[Cl-].[Cl-] [Ca^2+, CaCl2]
Actividad relativa (%) (modified esterase 499EST [2]; ion 1 mM): 9%
Actividad relativa (%) (modified esterase 499EST [2]; ion 10 mM): 7%
Actividad relativa (%) (modified esterase 499EST [2]; ion 10 mM, listed as Ca^+2): highest enzyme inhibition

[Cl-].[Cl-].[Co+2] [Co^2+, CoCl2]
Actividad relativa (%) (modified esterase 499EST [2]; ion 1 mM): 74%
Actividad relativa (%) (modified esterase 499EST [2]; ion 10 mM): 23%
Actividad relativa (%) (modified esterase 499EST [2]; ion 10 mM, listed as Co^+2): highest enzyme inhibition

[Cl][Cu][Cl] [Cu^2+, CuCl2]
Actividad relativa (%) (modified esterase 499EST [2]; ion 1 mM): 16%
Actividad relativa (%) (modified esterase 499EST [2]; ion 10 mM): 0%
Actividad relativa (%) (modified esterase 499EST [2]; ion 10 mM, listed as Cu^+2): highest enzyme inhibition

CN(C)C=O [DMF, dimethyl formamide]
% actividad relativa (modified esterase 499EST [1]; organic solvent 15%): 12.4%
% actividad relativa (modified esterase 499EST [1]; organic solvent 30%): 12.4%

C[S+](C)[O-] [DMSO, dimethyl sulfoxide]
% actividad relativa (modified esterase 499EST [1]; organic solvent 15%): 180.0%
% actividad relativa (modified esterase 499EST [1]; organic solvent 30%): 200.2%
esterase activity increased to (modified esterase 499EST [1]): 200%

O=C(O)CN(CCN(CC(=O)O)CC(=O)O)CC(=O)O [EDTA, ethylenediaminetetraacetic acid]
decrease in the relative enzymatic activity (499EST): 9%

CCO [Etanol, ethanol]
% actividad relativa (modified esterase 499EST [1]; organic solvent 15%): 22%
% actividad relativa (modified esterase 499EST [1]; organic solvent 30%): 12.9%

[Cl][Fe]([Cl])[Cl] [Fe^3+, FeCl3]
Actividad relativa (%) (modified esterase 499EST [2]; ion 1 mM): 111%
Actividad relativa (%) (modified esterase 499EST [2]; ion 10 mM): 342%
increase of the specific activity of the enzyme (modified esterase 499EST [2]; ion concentration from 2 to 10 mM): up to 3 times

OCC(O)CO [Glicerol, glycerol]
% actividad relativa (modified esterase 499EST [1]; organic solvent 15%): 234.8%
% actividad relativa (modified esterase 499EST [1]; organic solvent 30%): 250.3%
esterase activity increased to (modified esterase 499EST [1]): 250%

CO [Metanol, methanol]
% actividad relativa (modified esterase 499EST [1]; organic solvent 15%): 3.0%
% actividad relativa (modified esterase 499EST [1]; organic solvent 30%): 0.0%

[Cl-].[Cl-].[Mg+2] [Mg^2+, MgCl2]
Actividad relativa (%) (modified esterase 499EST [2]; ion 1 mM): 76%
Actividad relativa (%) (modified esterase 499EST [2]; ion 10 mM): 3%
Actividad relativa (%) (modified esterase 499EST [2]; ion 10 mM, listed as Mg^+2): highest enzyme inhibition

[Cl][Mn][Cl] [Mn^2+, MnCl2]
Actividad relativa (%) (modified esterase 499EST [2]; ion 1 mM): 252%
Actividad relativa (%) (modified esterase 499EST [2]; ion 10 mM): 127%

O=S(=O)(F)Cc1ccccc1 [PMSF, phenylmethanesulfonyl fluoride]
activity detected (499EST): 80%

CCCCCCCCCCCCOS(=O)(=O)[O-].[Na+] [SDS, sodium dodecyl sulfate]
effect of detergent on lipolytic activity (modified esterase 499EST [3]; 1 and 5% (v/v)): strongly inhibits
% actividad relativa (modified esterase 499EST [3]; detergent 1%): 8%
% actividad relativa (modified esterase 499EST [3]; detergent 5%): 6%

CCCCCCCC/C=C\CCCCCCCC(=O)OCCOCC(OCCO)C1OCC(OCCO)C1OCCO (centres unmarked) [Tween 80]
% actividad relativa (modified esterase 499EST [3]; detergent 1%): 85%
% actividad relativa (modified esterase 499EST [3]; detergent 5%): 32%

[Cl-].[Cl-].[Zn+2] [Zn^2+, ZnCl2]
Actividad relativa (%) (modified esterase 499EST [2]; ion 1 mM): 190%
Actividad relativa (%) (modified esterase 499EST [2]; ion 10 mM): 21%
Actividad relativa (%) (modified esterase 499EST [2]; ion 10 mM, listed as Zn^+2): highest enzyme inhibition

OCCS [β-mercaptoethanol, 2-mercaptoethanol]
decrease in the relative enzymatic activity (499EST): 12%
